According to US20090222938A1, “Therapeutic Target Molecules For The Development of Novel Medicaments for Degenerative Diseases” (Neuroprofile GMBH, priority 2006, published 2009):

How the values were obtained:
Type in all cases: cell-based
[1] = system: SCD-mRNA in NT2-N neurons; test: SCD mRNA quantitative real-time RT-PCR after stressor treatment; conditions: 15 day treatment
[2] = system: IDI1 protein in NT2-N neurons; test: IDI1 protein quantity by two dimensional polyacrylamid gel electrophoresis and mass spectrometric identification; conditions: 15 day treatment
Text: The increase of the IDI1 protein (IDI1=Isopentenyl-diphosphate delta isomerase 1; =Isopentenyl diphosphate dimethylallyl diphosphate isomerase 1) was detected with a two dimensional polyacrylamid gel electrophoresis after treatment of NT2-N neurons with haloperidol (as described in example 1) and subsequent mass spectrometric identification of the protein spot.

NT2-N neuron cells = test: Live/Dead-Viability/Cytotoxicity Assay, survival of neurons under chronic sublethal oxidative stressor; conditions: stressor 1.0-25 μM, serum-free; more than 3 days after the time point of sampling
Text: The increase of MAC30-mRNA in NT2-N neuron cells (Andrews P. W., Dev. Biol., 103, pp 285-293, 1984; Pleasure S. J., Page C., Lee V. M.-Y., J. Neurosci., 12, pp 1802-1815, 1992) has been detected in microarray analyses using fluorescence-labelled cDNA after treating the cells under serum-free conditions with chronic sublethal concentrations of the oxidative stressor haloperidol (Sigma; catalogue No. H-1512). Appropriate conditions for an optimal survival rate of the cells were obtained by means of the Live/Dead-Viability/Cytotoxicity Assay (Molecular Probes) according to the manual of the manufacturer. […] 2′,7′-dichlorodihydrofluorescein-diacetate (Sigma, catalogue No. D6883) was used for determining total cell quantity of ROS. […] Subsequently, the cells were homogenized by sonication, centrifugated (20 minutes, 4° C., 20.000×g), and the fluorescence of the supernatant was measured. […] The relative increase of ROS was calculated in relation to the control. Further, ROS was determined by means of dihydroethidium (DHE; Sigma catalogue No. D7008). 5 μM DHE was added into an aliquot of the scraped cells, incubated for 1 hour at 37° C., processed analogous to the DCFDA procedure, and the fluorescence of the supernatant was determined. The protein adjusted alteration of mitochondrial ROS was calculated in relation to the untreated control. […]

[3] = system: CUEDC1-mRNA in NT2-N neurons; test: CUEDC1 mRNA quantitative real-time RT-PCR after stressor treatment; conditions: 15 days of chronic oxidative stress
Text: This increase was further quantified by means of a quantitative real time RT-PCR analysis (qRTRTPCR) with fluorescence labelling by SYBR-Green 1. […] The PCR primer pair CUEDC1-For1 (5′-[sequence]-3′) (SEQ ID NO: 122) and CUEDC1-Rev2 (5′-[sequence]-3′) (SEQ ID NO: 123) is suitable for the analysis of the CUEDC1 mRNA by means of qRTRTPCR.

[4] = system: BRI3-mRNA in NT2-N neurons; test: BRI3 mRNA quantitative real-time RT-PCR after stressor treatment
Text: This increase may be quantified by means of a quantitative real-time RT-PCR analysis (qRTRTPCR) with fluorescence labelling by SYBR Green 1.

[5] = system: NPC2-mRNA in NT2-N neurons; test: NPC2 mRNA quantitative real-time RT-PCR after stressor treatment
[6] = system: G1P3-mRNA in NT2-N neurons; test: G1P3 mRNA quantitative real-time RT-PCR after stressor treatment
Text: The increase was quantified by means of a quantitative real-time RT-PCR analysis (qRTRTPCR) with fluorescence labeling by SYBR Green 1. […] The PCR primer pair G1P3-For1 (5′-[sequence]-3′) (SEQ ID NO: 118) and GIP3-Rev2 (5′-[sequence]-3′) (SEQ ID NO: 119) is suitable for the analysis of the G1P3 mRNA by means of qRTRTPCR.

[7] = system: MAC30-mRNA in NT2-N neuron cells; test: MAC30 mRNA quantitative real-time RT-PCR (SYBR Green 1) after stressor treatment
Text: The MAC30-mRNA increase may be quantified by a quantitative real-time RT-PCR analysis (qRTRTPCR) with fluorescence labelling by SYBR Green 1.

[8] = system: LOC222171-mRNA in NT2-N neurons; test: LOC222171 mRNA quantitative real-time RT-PCR after stressor treatment; conditions: 15 days of treatment
Text: This increase was quantified by means of a quantitative real time RT-PCR analysis (qRTRTPCR) featuring fluorescence labelling by SYBR-Green 1. […] The PCR primer pair LOC222171-For1 (5′-[sequence]-3′) (SEQ ID NO: 120) and LOC222171-Rev2 (5′-[sequence]-3′) (SEQ ID NO: 121) is suitable for the analysis of the LOC222171 mRNA by means of qRTRTPCR.

[9] = longer treatment, 'may achieve up to ... or more'

Compound: O=C(CCCN1CCC(O)(c2ccc(Cl)cc2)CC1)c1ccc(F)cc1 [haloperidol]
- SCD-mRNA increase in comparison to untreated neurons [1]: ≥ 50%
- IDI1-protein quantity increase [2]: ≥ 30%
- neurons alive (NT2-N neuron cells): More than 75%
- CUEDC1-mRNA increase [3]: more than 30%
- BRI3-mRNA increase ([4]; 8-day treatment): ≥ 40%
- BRI3-mRNA increase ([4]; 3 days after treatment): increase can be detected
- BRI3-mRNA increase [4, 9]: ≥ 200%
- NPC2-mRNA increase ([5]; 15 days of chronic sublethal oxidative stress): ≥ 50%
- NPC2-mRNA increase in comparison to untreated neurons ([5]; after 3 days): significant increase
- G1P3-mRNA increase ([6]; 8-day treatment): ≥ 50%
- G1P3-mRNA increase ([6]; after 3 days): marked increase
- G1P3-mRNA increase [6, 9]: ≥ 400%
- MAC30-mRNA increase ([7]; 8-day treatment, 1.0-25 μM): at least 50%
- MAC30-mRNA increase [7, 9]: ≥ 200%
- LOC222171-mRNA increase [8]: ≥ 50%
